Laboratory results from US20100056482A1, “Calixarene Derivatives as Anticancer Agent” (CENTRE NATIONAL DE LA RECHERCHE SCIENTIFIQUE-CNRS, priority 2006, published 2010).

Assays:
Assay type in all cases: cell-based
[1] = system: human PBMC (peripheral blood mononuclear cells); assay: MTS cell viability, human PBMC primary culture (Example 3); settings: primary culture of human PBMC (WBC, healthy lymphocytes), read-out: IC50 (mean concentration for 50% mortality)
Description: (§1) The cells (0.2×10^6/ml) were incubated in a sterile fashion in 100 μl of culture medium (RPMI-1640 supplemented with 10% foetal calf serum, penicillin, streptomycin and amphotericin B) at day DO with variable quantities (from […]) of C4diP at 37° C. and 5% CO2 in a water-saturated atmosphere. At the 4th day, 20 μl of MTS (non-radioactive cell proliferation test (Promega Cat. #: G 3580) is added to the previous 100 μl and then a spectrophotometric reading is carried out at 490 nm after 2 hours of incubation against reagent blanks.
In order to determine the anticancer effect of C4diP on a particular culture of tumour cells, the IC50 was calculated.
The protocol used is that described previously in example 1. When vinblastin is used in the culture medium, it replaces C4diP.

[2] = system: WBC (leucocytes), non tumoral cells; assay: MTS cell viability, WBC (Example 2); settings: Leucocyte, MTS on 3rd day
Description: as §1, with “of C4diP, tBuC4diP or C8C4diP” for “of C4diP”, “atmosphere. On” for “atmosphere. At”, “the 3rd” for “the 4th”, “MTS (non radioactive” for “MTS (non-radioactive”, “3580) are” for “3580) is”
(§2) The cell lines used are as follows: • keratinocytes • WBC: leucocytes • MEWO: human skin melanoma • jurkat: T-cell acute lymphoblastic leukaemia. Cells of the T-lymphocyte type. • HL-60: promyelocytary acute leukaemia. Cells of the promyeloblast type. • Huh7: human hepatoma • Hep-G2: hepatocellular carcinoma.
(§3) The anticancerous effect of C4diP, tBuC4diP and C8C4diP is evaluated by measuring cell viability as a function of variable quantities of these compounds.
(§4) In order to determine the anticancer effect of C4diP, tBuC4diP and C8C4diP on a particular tumour cell culture, the IC50 was calculated.

[3] = system: keratinocytes, non tumoral cells; assay: MTS cell viability, keratinocytes (Example 2); settings: Keratinocyte, Keratonicytes, MTS on 3rd day
Description: as §1, with “of C4diP, tBuC4diP or C8C4diP” for “of C4diP”, “atmosphere. On” for “atmosphere. At”, “the 3rd” for “the 4th”, “MTS (non radioactive” for “MTS (non-radioactive”, “3580) are” for “3580) is”
as §2, §3, §4

[4] = system: Hep-G2 hepatocellular carcinoma cells; assay: MTS cell viability, HepG2 (Example 2); settings: Homo sapiens; HepG2, MTS on 3rd day
Description: as §1, with “of C4diP, tBuC4diP or C8C4diP” for “of C4diP”, “atmosphere. On” for “atmosphere. At”, “the 3rd” for “the 4th”, “MTS (non radioactive” for “MTS (non-radioactive”, “3580) are” for “3580) is”
as §2, §3, §4

[5] = system: HL-60 promyelocytary acute leukaemia cells; assay: MTS cell viability, HL-60 (Example 2); settings: Homo sapiens; HL-60, MTS on 3rd day
Description: as §1, with “of C4diP, tBuC4diP or C8C4diP” for “of C4diP”, “atmosphere. On” for “atmosphere. At”, “the 3rd” for “the 4th”, “MTS (non radioactive” for “MTS (non-radioactive”, “3580) are” for “3580) is”
as §2, §3, §4

[6] = system: Huh7 human hepatoma cells; assay: MTS cell viability, Huh7 (Example 2); settings: Huh 7, MTS on 3rd day
Description: as §1, with “of C4diP, tBuC4diP or C8C4diP” for “of C4diP”, “atmosphere. On” for “atmosphere. At”, “the 3rd” for “the 4th”, “MTS (non radioactive” for “MTS (non-radioactive”, “3580) are” for “3580) is”
as §2, §3, §4

[7] = system: jurkat T-cell acute lymphoblastic leukaemia cells; assay: MTS cell viability, Jurkat (Example 2); settings: Homo sapiens, MTS on 3rd day
Description: as §1, with “of C4diP, tBuC4diP or C8C4diP” for “of C4diP”, “atmosphere. On” for “atmosphere. At”, “the 3rd” for “the 4th”, “MTS (non radioactive” for “MTS (non-radioactive”, “3580) are” for “3580) is”
as §2, §3, §4

[8] = system: MEWO human skin melanoma cells; assay: MTS cell viability, Mewo (Example 2); settings: MTS on 3rd day
Description: as §1, with “of C4diP, tBuC4diP or C8C4diP” for “of C4diP”, “atmosphere. On” for “atmosphere. At”, “the 3rd” for “the 4th”, “MTS (non radioactive” for “MTS (non-radioactive”, “3580) are” for “3580) is”
as §2, §3, §4

| Compound | IC50 [1] [µM] | IC50 [2] [µM] | IC50 [3] [µM] | IC50 [4] [µM] | IC50 [5] [µM] | IC50 [6] [µM] | IC50 [7] [µM] | IC50 [8] [µM] |
| --- | --- | --- | --- | --- | --- | --- | --- | --- |
| CC[C@]1(O)C[C@@H]2CN(CCc3c([nH]c4ccccc34)[C@@](C(=O)OC)(c3cc4c(cc3OC)N(C)[C@H]3[C@@](O)(C(=O)OC)[C@H](OC(C)=O)[C@]5(CC)C=CCN6CC[C@]43[C@@H]65)C2)C1 [vinblastin, reference compound] | 0.005 | – | – | – | – | – | – | – |
| CCCCCCCC(=O)/C(C)=C/C(Cc1cc(C(=O)CCCCCCC)cc(Cc2cc(C(=O)CCCCCCC)cc(Cc3cc(C(=O)CCCCCCC)cc(CC)c3OP(=O)(O)O)c2O)c1OP(=O)(O)O)=C(\C)O [C8C4diP, para-octanoyl-calyx[4]arene dihydroxyphosphonic acid] | – | 95 | 46 | 1000 | 1000 | 270 | 113 | 1000 |
